Earlier results on one compound are cited in patent publication US8685448B2, “Pharmaceutical solid dosage form” (Laboratorios Del Dr. Esteve, S.A., priority 2009, dated 2014).

SMILES strings stand for the structures. Structures can show the parent of a compound that is named as a salt.

The conditions of this data set: background statement.

With `COc1ccc2nc([S@@+]([O-])Cc3ncc(C)c(OC)c3C)[nH]c2c1` [esomeprazol sodium salt, sodium salt of (−)-(S)-5-methoxy-2-[(4-methoxy-3,5-dimethylpyridin-2-yl)methylsulflnyl]-3H-benzoimidazole], the solubility in water entry is reported as “extremely soluble in water”.
